Non-standard residues stand in square brackets, D forms with d. No end group written: not given here. Met(O) = CS(=O)CC[C@H](N)C(=O)O; Cit = NC(=O)NCCC[C@H](N)C(=O)O

The subject of test [1] is tumor tissue homogenates derived from four mouse xenograft models (HPAF-II, Ramos, SK-Mel-5, SU-DHL-4). In words: Fluorescence assay of tripeptide library: proteolysis by tumor tissue homogenate. The test is classed as biochemical. The note with it: for Normalized Tumor Tissue / Normalized Tumor: normalized fluorescence; for Normalized Tumor Tissue: averaged across 4 tumor homogenates (HPAF-II, Ramos, SK-Mel-5, SU-DHL-4); for Normalized Tumor: averaged across 4 tumor homogenates. On the procedure:
(§1) Fluorescence assay. To a 384 well plate was added a mixture of tumor or normal tissue homogenate and citrate buffer (100 mM, pH 4.5; 9 μL) followed by a fluorescently labelled library compound (1 μL; dissolved in 50% MeCN). The reaction was incubated at 37° C. and fluorescence (330 nm excitation, 450 nm emission) was detected several times over a 6-hr. period. The fluorescence fold change was determined by dividing the fluorescence value at each time point with the background fluorescence when no homogenate was added.
(§2) Tissue Homogenization. Normal tissue or tumor tissue from mouse xenografts were suspended in buffer (50 mM Tris, 150 mM KCl, pH 7.0) and added to a tube containing Matrix D lysing beads (mpbio). The tissue was homogenized with a Precellys™ 24 homogenizer. The homogenized sample was centrifuged at 1000×g for 10 min and the resulting supernatant was collected then frozen at −80° C. until further use.
(§3) The library members were synthesized on cellulose support according to the method by Hilpert, K. et al. in “Peptide arrays on cellulose support: SPOT synthesis, a time and cost efficient method for synthesis of large numbers of peptides in a parallel and addressable fashion”, Nature Protocols (2007) 2(6): 1333-1349, the method of which is specifically incorporated by reference herein, with one important modification. That modification uses laser-perforated cellulose paper so that synthesis of each library member occurs with a clearly defined circular disc. After SPOT synthesis, each circular area, which separately contains a discrete library member, is punched out by a multichannel pipette into individual wells of a microtiter plate. The microtiter plate is then placed into an ammonia chamber to cleave the tripeptide containing model compounds from the cellulose discs. The cleaved compounds were then transferred to a fresh microtiter plate after solubilizing each into 50% aqueous acetonitrile. The contents of the wells were then assessed for susceptibility to proteolysis by tumor tissue homogenate in comparison to a comparator peptide-based drug linker compound having the dipeptide val-cit, which is replaced by the -[P1]-[P2]-[P3]-tripeptides in the library of drug linker compounds, by measuring the fluorescence found in each of the wells of the library after contacting with tumor or normal tissue homogenate and dividing it by the fluorescence found for tumor or normal tissue homogenate cleavage of the comparator dipeptide-containing drug linker compound.
The normalized fluorescence value for tumor homogenate proteolysis is an averaged value for tumor tissue homogenates derived from four mouse xenograft models. Calculation of those normalized values are described following Table 1A.
(§4) A normalized fluorescence value is calculated by dividing the fluorescence value at the final time point (275-315 min) from addition of a tissue homogenate by the fluorescence value when no tissue homogenate was added. That value was then normalized for each peptide in each homogenate by dividing it by the average value for that homogenate. […] The normalized tumor tissue values of Table 1 were then determined by averaging the normalized fluorescence value for each peptide across all 4 cancer homogenates that were tested. Those tumor homogenates were derived from xenograft models for HPAF-II (Nude mouse), Ramos (SCID mouse), SK-Mel-5 (Nude mouse) and SU-DHL-4 (SCID mouse). The normalized normal tissue values of Table 1 were similarly calculated using homogenized bone marrow. The Tumor/Normal ratios of Table 1A were determined by dividing the normalized tumor tissue values by the normalized normal tissue values.

Test [2] relates to normal human bone marrow homogenate. In words: Fluorescence assay of tripeptide library: proteolysis by normal tissue homogenate. It counts as biochemical. The note with it: for Normalized Normal Tissue: Table 1A, normalized fluorescence fold change at final time point (275-315 min), pH 4.5, 37° C.; for Normalized Normal: Table 1B, normalized fluorescence. On the procedure: as §1, §2, §3
The normalized normal tissue fluorescence values are from proteolysis by normal human bone marrow. Human bone marrow was chosen as the normal tissue because it is the site of an adverse event (neutropenia) that has been associated with administering to a human subject in need thereof an effective amount of an Antibody Drug Conjugate having drug linker moieties derived from the Drug Linker compound m-val-cit-PABC-MMAE.
as §4

Setting [3] is: Table 1A, normalized tumor tissue value divided by normalized normal tissue value.
Where [4] appears, read: Table 1B, normalized tumor value divided by normalized normal value.

As for Ala-Cit-Cit, the “Normalized Tumor Tissue” value in test [1] (Table 1A) was determined as 2.58. This substance also returned a Tumor/Normal in test [1] (setting [3]) of 2.53. For the same substance, in test [2], the “Normalized Normal Tissue” value was determined as 1.02.

As to Cit-Cit-Cit, the “Normalized Tumor Tissue” value in test [1] (Table 1A) is 2.82. The same substance had a Tumor/Normal in test [1] (setting [3]) of 2.52. In test [2], the “Normalized Normal Tissue” value is on record as 1.12.

As for Cit-Glu-Cit, the “Normalized Tumor Tissue” value in test [1] (Table 1A) is listed as 3.16. Besides, the Tumor/Normal in test [1] (setting [3]) is 2.61. In addition, in test [2], the “Normalized Normal Tissue” value came to 1.21.

In the case of DLeu-Leu-Cit, in test [1] (Table 1A), the “Normalized Tumor Tissue” value was 3.70. The substance also displayed a Tumor/Normal in test [1] (setting [3]) of 2.70. In test [2], the “Normalized Normal Tissue” value came to 1.37.

On to Glu-Ala-Glu, for which the “Normalized Tumor Tissue” value in test [1] (Table 1A) was 2.66. Further, the Tumor/Normal in test [1] (setting [3]) is 2.53. Moreover, the “Normalized Normal Tissue” value in test [2] is 1.05.

Take Glu-Glu-[Cit]: in test [1] (Table 1A), the “Normalized Tumor Tissue” value came out at 3.14. The substance further showed a Tumor/Normal in test [1] (setting [3]) of 2.57. In addition, in test [2], the “Normalized Normal Tissue” value stood at 1.22.

As to Lys-Glu-[Met(O)], in test [1] (Table 1B), the “Normalized Tumor” value was determined as 1.16. In test [1] (setting [4]), this substance had a Tumor/Normal of 1.66. Besides, the “Normalized Normal” value in test [2] is reported as 0.70.

As to Pro-Ala-Glu, the “Normalized Tumor Tissue” value in test [1] (Table 1A) amounted to 2.48. This substance also gave a Tumor/Normal in test [1] (setting [3]) of 3.16. Further, the “Normalized Normal Tissue” value in test [2] came to 0.78.

Regarding Pro-Ala-[Cit], the “Normalized Tumor Tissue” value in test [1] (Table 1A) is listed as 3.03. In test [1] (setting [3]), this substance came in with a Tumor/Normal of 2.84. In addition, the “Normalized Normal Tissue” value in test [2] is on record as 1.07.

As to Pro-Cit-Cit, the “Normalized Tumor Tissue” value in test [1] (Table 1A) worked out at 2.54. For the same substance, the Tumor/Normal in test [1] (setting [3]) is 2.67. Moreover, the “Normalized Normal Tissue” value in test [2] came to 0.95.

Turning to Pro-Glu-Ala, in test [1] (Table 1B), the “Normalized Tumor” value came to 1.28. In test [1] (setting [4]), this substance returned a Tumor/Normal of 1.84. The “Normalized Normal” value in test [2] came to 0.70.

With Pro-Glu-Glu, the “Normalized Tumor Tissue” value in test [1] (Table 1A) is listed as 1.87. In test [1] (setting [3]), the Tumor/Normal is 2.58. Also, in test [2], the “Normalized Normal Tissue” value was found to be 0.73.

In the case of Pro-Glu-Lys, the “Normalized Tumor Tissue” value in test [1] (Table 1A) was determined as 1.85. For the same substance, the Tumor/Normal in test [1] (setting [3]) amounted to 2.57. Also, the “Normalized Normal Tissue” value in test [2] turned out to be 0.72.

In the case of Pro-Glu-[Cit], the “Normalized Tumor Tissue” value in test [1] (Table 1A) is 2.35. Further, the Tumor/Normal in test [1] (setting [3]) was determined as 2.77. Moreover, the “Normalized Normal Tissue” value in test [2] was found to be 0.85.

With Pro-Lys-Glu, in test [1] (Table 1A), the “Normalized Tumor Tissue” value is recorded as 1.88. Also, the Tumor/Normal in test [1] (setting [3]) turned out to be 2.59. The “Normalized Normal Tissue” value in test [2] is given as 0.72.

For the substance Pro-[Cit]-Glu, in test [1] (Table 1A), the “Normalized Tumor Tissue” value is 2.27. The same substance gave a Tumor/Normal in test [1] (setting [3]) of 2.68. In test [2], the “Normalized Normal Tissue” value was found to be 0.85.

As for Thr-Cit-Cit, the “Normalized Tumor Tissue” value in test [1] (Table 1A) amounted to 2.26. This substance also showed a Tumor/Normal in test [1] (setting [3]) of 2.53. In addition, the “Normalized Normal Tissue” value in test [2] was 0.89.

Consider [Cit]-Glu-Glu, for which, in test [1] (Table 1A), the “Normalized Tumor Tissue” value was 2.44. Besides, the Tumor/Normal in test [1] (setting [3]) amounted to 2.53. In addition, in test [2], the “Normalized Normal Tissue” value stood at 0.97.

For the substance [dL]-Ala-Lys, the “Normalized Tumor” value in test [1] (Table 1B) was determined as 1.16. In test [1] (setting [4]), this substance gave a Tumor/Normal of 1.70. Further, in test [2], the “Normalized Normal” value stood at 0.68.

With [dL]-Glu-Lys, the “Normalized Tumor” value in test [1] (Table 1B) is given as 1.06. In test [1] (setting [4]), the Tumor/Normal is reported as 1.71. Moreover, the “Normalized Normal” value in test [2] was 0.62.

Regarding [dL]-Leu-Glu, the “Normalized Tumor Tissue” value in test [1] (Table 1A) is recorded as 3.45. In addition, the Tumor/Normal in test [1] (setting [3]) is recorded as 3.09. In addition, the “Normalized Normal Tissue” value in test [2] was found to be 1.12.

On to [dL]-Leu-Lys, for which the “Normalized Tumor Tissue” value in test [1] (Table 1A) stood at 2.20. Moreover, in test [1] (setting [3]), the Tumor/Normal is 2.54. In addition, the “Normalized Normal Tissue” value in test [2] stood at 0.87.

[dL]-Leu-[Met(O)]: the “Normalized Tumor Tissue” value in test [1] (Table 1A) amounted to 1.70. The Tumor/Normal in test [1] (setting [3]) is reported as 2.58. Moreover, in test [1] (Table 1B), the “Normalized Tumor” value was 1.70. In test [1] (setting [4]), this substance gave a Tumor/Normal of 2.58. In test [2], the “Normalized Normal Tissue” value worked out at 0.66 and the “Normalized Normal” value came out at 0.66.

Turning to [dL]-Phe-Glu, the “Normalized Tumor Tissue” value in test [1] (Table 1A) was determined as 2.27. The Tumor/Normal in test [1] (setting [3]) worked out at 2.55. Also, the “Normalized Normal Tissue” value in test [2] amounted to 0.89.

As to [dL]-[Cit]-Glu, the “Normalized Tumor” value in test [1] (Table 1B) amounted to 1.07. In addition, in test [1] (setting [4]), the Tumor/Normal was 1.67. For the same substance, the “Normalized Normal” value in test [2] is reported as 0.64.

Values taken from patent publication US20210138077A1, “SELECTIVE DRUG RELEASE FROM INTERNALIZED CONJUGATES OF BIOLOGICALLY ACTIVE COMPOUNDS” (Seagen Inc., priority 2019, published 2021).
